Measured values published in ChEMBL document CHEMBL4823307, “Discovery of benzimidazole derivatives as potent and selective aldehyde dehydrogenase 1A1 (ALDH1A1) inhibitors with glucose consumption improving activity” (Bioorg Med Chem, 2021).

Molecular target: T1, Aldehyde dehydrogenase 1A1 (Homo sapiens, UniProt P00352)
T1 sequence (P00352 whole entry): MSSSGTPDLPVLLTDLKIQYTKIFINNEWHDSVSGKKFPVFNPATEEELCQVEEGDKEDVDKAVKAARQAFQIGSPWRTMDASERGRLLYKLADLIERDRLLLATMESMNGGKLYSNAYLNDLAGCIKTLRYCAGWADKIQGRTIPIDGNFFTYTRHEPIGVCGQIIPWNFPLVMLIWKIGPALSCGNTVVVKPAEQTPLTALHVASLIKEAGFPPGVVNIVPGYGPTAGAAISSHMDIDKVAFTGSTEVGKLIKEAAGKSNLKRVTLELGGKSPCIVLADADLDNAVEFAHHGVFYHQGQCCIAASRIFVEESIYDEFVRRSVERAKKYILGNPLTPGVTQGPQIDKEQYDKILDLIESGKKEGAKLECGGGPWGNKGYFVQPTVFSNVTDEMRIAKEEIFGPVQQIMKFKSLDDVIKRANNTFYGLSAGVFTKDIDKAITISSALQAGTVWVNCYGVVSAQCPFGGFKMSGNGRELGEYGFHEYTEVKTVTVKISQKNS
Assay: Inhibition of human ALDH1A1 assessed as NADH formation using propionaldehyde as substrate by spectrophotometry
Details: not given

Row | IC50 [µM] | SMILES
1 | 1.5 | CC(C)=CCn1c(CN2CCN(C(=O)C3CC3)CC2)nc2ccccc21
2 | 2.11 | O=C(C1CC1)N1CCN(Cc2nc3ccccc3n2Cc2cccc(Cl)c2)CC1
3 | 0.921 | O=C(C1CC1)N1CCN(Cc2nc3ccccc3n2Cc2cccc(C(F)(F)F)c2)CC1
4 | 1.02 | O=C(C1CC1)N1CCN(Cc2nc3ccccc3n2Cc2ccccc2Cl)CC1
5 | 0.243 | Cc1cccc(Cn2c(CN3CCN(C(=O)C4CC4)CC3)nc3ccccc32)c1

Test system: not listed separately
Assay: Cytotoxicity against human HepG2 cells assessed as cell viability at 1 uM incubated for 24 hrs by MTT assay relative to control
Type: cell-based
Details: read-out: Activity

Row | SMILES | viability at 24 h, 1 µM [%]
6 | O=C(C1CC1)N1CCN(Cc2nc3ccccc3n2Cc2cccc(C(F)(F)F)c2)CC1 | 91.8
7 | O=C(C1CC1)N1CCN(Cc2nc3ccccc3n2Cc2ccccc2Cl)CC1 | 91.9
8 | Cc1cccc(Cn2c(CN3CCN(C(=O)C4CC4)CC3)nc3ccccc32)c1 | 91.3

Test system: HepG2
Assay: Cytotoxicity against human HepG2 cells assessed as morphological changes at 0.1 to 10 uM incubated for 24 hrs
Type: cell-based
Details: hepg2, 24 h, dose 0.1-10 µM

Row | SMILES | Activity
9 | O=C(C1CC1)N1CCN(Cc2nc3ccccc3n2Cc2cccc(C(F)(F)F)c2)CC1 | Non-Toxic
10 | O=C(C1CC1)N1CCN(Cc2nc3ccccc3n2Cc2ccccc2Cl)CC1 | Non-Toxic
11 | Cc1cccc(Cn2c(CN3CCN(C(=O)C4CC4)CC3)nc3ccccc32)c1 | Non-Toxic

Test system: not listed separately
Assay: Metabolic stability in human liver microsomes assessed as half life at 2 ug/ml measured up to 45 mins by LC-MS/MS analysis
Type: ADME, Microsome
Details: dose 2 µg/ml

Row | half-life at 2 ug/ml [min] | SMILES
12 | 27 | O=C(C1CC1)N1CCN(Cc2nc3ccccc3n2Cc2cccc(C(F)(F)F)c2)CC1
13 | 32 | O=C(C1CC1)N1CCN(Cc2nc3ccccc3n2Cc2ccccc2Cl)CC1
14 | 35 | Cc1cccc(Cn2c(CN3CCN(C(=O)C4CC4)CC3)nc3ccccc32)c1

Test system: not listed separately
Assay: Cytotoxicity against human HepG2 cells assessed as cell viability at 0.1 uM incubated for 24 hrs by MTT assay relative to control
Type: cell-based
Details: read-out: Activity

Row | SMILES | viability at 24 h, 0.1 µM [%]
15 | O=C(C1CC1)N1CCN(Cc2nc3ccccc3n2Cc2cccc(C(F)(F)F)c2)CC1 | 95.9
16 | O=C(C1CC1)N1CCN(Cc2nc3ccccc3n2Cc2ccccc2Cl)CC1 | 93.8
17 | Cc1cccc(Cn2c(CN3CCN(C(=O)C4CC4)CC3)nc3ccccc32)c1 | 93.4

Molecular target: T2, Aldehyde dehydrogenase 1A1 (Homo sapiens) (UniProt P00352)
T2 sequence (whole entry): T1 sequence (P00352 whole entry)
Assay: Inhibition of human ALDH1A1 assessed as NADH formation using propionaldehyde as substrate at 10 uM by spectrophotometry
Details: not given

Row | inhibition [%] | SMILES
18 | 74.3 | CC(C)=CCn1c(CN2CCN(C(=O)C3CC3)CC2)nc2ccccc21
19 | 71.6 | O=C(C1CC1)N1CCN(Cc2nc3ccccc3n2Cc2cccc(Cl)c2)CC1
20 | 82.1 | O=C(C1CC1)N1CCN(Cc2nc3ccccc3n2Cc2cccc(C(F)(F)F)c2)CC1
21 | 78.3 | O=C(C1CC1)N1CCN(Cc2nc3ccccc3n2Cc2ccccc2Cl)CC1
22 | 89.1 | Cc1cccc(Cn2c(CN3CCN(C(=O)C4CC4)CC3)nc3ccccc32)c1

Test system: not listed separately
Assay: Cytotoxicity against human HepG2 cells assessed as cell viability at 10 uM incubated for 24 hrs by MTT assay relative to control
Type: cell-based
Details: read-out: Activity

Row | SMILES | viability at 24 h, 10 µM [%]
23 | O=C(C1CC1)N1CCN(Cc2nc3ccccc3n2Cc2cccc(C(F)(F)F)c2)CC1 | 90
24 | O=C(C1CC1)N1CCN(Cc2nc3ccccc3n2Cc2ccccc2Cl)CC1 | 85.7
25 | Cc1cccc(Cn2c(CN3CCN(C(=O)C4CC4)CC3)nc3ccccc32)c1 | 90

Test system: HepG2
Assay: Increase in glucose consumption in human HepG2 cells at 10 uM by glucose oxidase assay
Type: functional
Details: not given

Row | SMILES | Activity [%]
26 | O=C(C1CC1)N1CCN(Cc2nc3ccccc3n2Cc2cccc(C(F)(F)F)c2)CC1 | 30
27 | O=C(C1CC1)N1CCN(Cc2nc3ccccc3n2Cc2ccccc2Cl)CC1 | 28
28 | Cc1cccc(Cn2c(CN3CCN(C(=O)C4CC4)CC3)nc3ccccc32)c1 | 25

Molecular target: T3, Retinal dehydrogenase 2 (Homo sapiens, UniProt O94788)
T3 sequence (O94788 whole entry): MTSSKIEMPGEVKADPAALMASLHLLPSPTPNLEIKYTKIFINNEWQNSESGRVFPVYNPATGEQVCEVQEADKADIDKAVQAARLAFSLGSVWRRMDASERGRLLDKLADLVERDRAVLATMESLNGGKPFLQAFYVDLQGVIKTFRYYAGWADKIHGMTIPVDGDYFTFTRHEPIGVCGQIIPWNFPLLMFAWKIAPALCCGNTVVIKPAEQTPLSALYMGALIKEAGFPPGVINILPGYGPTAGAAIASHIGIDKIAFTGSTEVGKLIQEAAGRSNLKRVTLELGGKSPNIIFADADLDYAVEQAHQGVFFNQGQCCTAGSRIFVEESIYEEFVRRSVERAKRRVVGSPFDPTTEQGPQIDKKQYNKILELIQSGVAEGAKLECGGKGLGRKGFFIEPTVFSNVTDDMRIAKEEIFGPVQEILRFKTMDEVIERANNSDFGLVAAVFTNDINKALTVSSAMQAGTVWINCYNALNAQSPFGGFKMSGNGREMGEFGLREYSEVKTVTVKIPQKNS
Assay: Inhibition of human ALDH1A2 assessed as NADH formation using propionaldehyde as substrate by spectrophotometry
Details: not given

Row | IC50 [µM] | SMILES
29 | 1.62 | CC(C)=CCn1c(CN2CCN(C(=O)C3CC3)CC2)nc2ccccc21
30 | 0.89 | O=C(C1CC1)N1CCN(Cc2nc3ccccc3n2Cc2cccc(Cl)c2)CC1
31 | 1.37 | O=C(C1CC1)N1CCN(Cc2nc3ccccc3n2Cc2cccc(C(F)(F)F)c2)CC1
32 | 1.97 | O=C(C1CC1)N1CCN(Cc2nc3ccccc3n2Cc2ccccc2Cl)CC1
33 | 1.58 | Cc1cccc(Cn2c(CN3CCN(C(=O)C4CC4)CC3)nc3ccccc32)c1

Molecular target: T4, Retinaldehyde dehydrogenase 3 (Homo sapiens, UniProt P47895)
T4 sequence (P47895 whole entry): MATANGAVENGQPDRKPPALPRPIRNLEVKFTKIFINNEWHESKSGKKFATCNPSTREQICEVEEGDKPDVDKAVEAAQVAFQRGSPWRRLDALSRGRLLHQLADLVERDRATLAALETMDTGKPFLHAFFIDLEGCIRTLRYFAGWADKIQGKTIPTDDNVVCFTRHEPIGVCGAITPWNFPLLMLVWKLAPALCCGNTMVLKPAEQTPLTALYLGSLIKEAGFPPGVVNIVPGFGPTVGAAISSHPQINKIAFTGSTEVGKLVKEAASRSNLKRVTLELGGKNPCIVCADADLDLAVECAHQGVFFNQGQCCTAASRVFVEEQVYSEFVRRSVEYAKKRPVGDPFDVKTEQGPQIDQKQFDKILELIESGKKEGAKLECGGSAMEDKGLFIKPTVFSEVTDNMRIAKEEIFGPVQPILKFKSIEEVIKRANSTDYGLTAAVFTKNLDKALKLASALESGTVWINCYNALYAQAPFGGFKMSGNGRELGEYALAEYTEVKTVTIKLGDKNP
Assay: Inhibition of human ALDH1A3 assessed as NADH formation using propionaldehyde as substrate by spectrophotometry
Details: not given

Row | IC50 [µM] | SMILES
34 | 1.27 | CC(C)=CCn1c(CN2CCN(C(=O)C3CC3)CC2)nc2ccccc21
35 | 1.01 | O=C(C1CC1)N1CCN(Cc2nc3ccccc3n2Cc2cccc(Cl)c2)CC1
36 | 0.59 | O=C(C1CC1)N1CCN(Cc2nc3ccccc3n2Cc2cccc(C(F)(F)F)c2)CC1
37 | 2.41 | O=C(C1CC1)N1CCN(Cc2nc3ccccc3n2Cc2ccccc2Cl)CC1
38 | 2.12 | Cc1cccc(Cn2c(CN3CCN(C(=O)C4CC4)CC3)nc3ccccc32)c1

Test system: not listed separately
Assay: Metabolic stability in human liver microsomes assessed as first order elimination rate constant at 2 ug/ml measured up to 45 mins by LC-MS/MS analysis
Type: ADME, Microsome
Details: dose 2 µg/ml

Row | k el at 0.75 h, 2 ug/ml [s⁻¹] | SMILES
39 | 0.000433 | O=C(C1CC1)N1CCN(Cc2nc3ccccc3n2Cc2cccc(C(F)(F)F)c2)CC1
40 | 0.000367 | O=C(C1CC1)N1CCN(Cc2nc3ccccc3n2Cc2ccccc2Cl)CC1
41 | 0.000333 | Cc1cccc(Cn2c(CN3CCN(C(=O)C4CC4)CC3)nc3ccccc32)c1

Molecular target: T5, Aldehyde dehydrogenase, mitochondrial (Homo sapiens, UniProt P05091)
T5 sequence (P05091 whole entry): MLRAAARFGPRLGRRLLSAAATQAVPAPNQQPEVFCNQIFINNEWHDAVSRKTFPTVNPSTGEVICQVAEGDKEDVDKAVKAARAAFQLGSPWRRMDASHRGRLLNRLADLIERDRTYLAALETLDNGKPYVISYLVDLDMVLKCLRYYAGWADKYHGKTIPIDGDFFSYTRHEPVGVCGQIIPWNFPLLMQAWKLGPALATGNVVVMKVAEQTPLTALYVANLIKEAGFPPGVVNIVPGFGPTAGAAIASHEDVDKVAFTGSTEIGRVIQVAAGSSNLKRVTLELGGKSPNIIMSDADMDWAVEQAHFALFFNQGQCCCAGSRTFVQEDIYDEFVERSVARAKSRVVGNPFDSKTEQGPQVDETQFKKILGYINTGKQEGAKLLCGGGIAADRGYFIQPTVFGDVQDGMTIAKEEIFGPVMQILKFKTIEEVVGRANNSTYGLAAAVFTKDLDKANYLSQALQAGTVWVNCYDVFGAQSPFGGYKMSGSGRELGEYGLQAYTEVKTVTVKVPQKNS
Assay: Inhibition of human ALDH2 assessed as NADH formation using propionaldehyde as substrate by spectrophotometry
Details: not given

Row | IC50 [µM] | SMILES
42 | 1.48 | CC(C)=CCn1c(CN2CCN(C(=O)C3CC3)CC2)nc2ccccc21
43 | 2.31 | O=C(C1CC1)N1CCN(Cc2nc3ccccc3n2Cc2cccc(Cl)c2)CC1
44 | 2.17 | O=C(C1CC1)N1CCN(Cc2nc3ccccc3n2Cc2cccc(C(F)(F)F)c2)CC1
45 | 3.16 | O=C(C1CC1)N1CCN(Cc2nc3ccccc3n2Cc2ccccc2Cl)CC1
46 | 0.79 | Cc1cccc(Cn2c(CN3CCN(C(=O)C4CC4)CC3)nc3ccccc32)c1

Molecular target: T6, Aldehyde dehydrogenase, dimeric NADP-preferring (Homo sapiens, UniProt P30838)
T6 sequence (P30838 whole entry): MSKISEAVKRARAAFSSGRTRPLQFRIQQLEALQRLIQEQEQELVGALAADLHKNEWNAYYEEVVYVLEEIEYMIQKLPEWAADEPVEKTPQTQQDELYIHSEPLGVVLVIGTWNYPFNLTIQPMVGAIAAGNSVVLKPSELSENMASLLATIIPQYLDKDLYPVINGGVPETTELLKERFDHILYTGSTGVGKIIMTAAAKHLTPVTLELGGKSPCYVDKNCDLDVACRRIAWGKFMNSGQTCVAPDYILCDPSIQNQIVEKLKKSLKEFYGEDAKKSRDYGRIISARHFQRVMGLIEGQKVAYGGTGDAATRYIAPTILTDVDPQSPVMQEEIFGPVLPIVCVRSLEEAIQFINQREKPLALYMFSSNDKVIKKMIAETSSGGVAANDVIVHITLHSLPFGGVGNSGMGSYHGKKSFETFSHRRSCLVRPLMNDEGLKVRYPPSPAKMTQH
Assay: Inhibition of human ALDH3A1 assessed as NADH formation using propionaldehyde as substrate by spectrophotometry
Details: not given

Row | IC50 [µM] | SMILES
47 | 2.15 | CC(C)=CCn1c(CN2CCN(C(=O)C3CC3)CC2)nc2ccccc21
48 | 1.45 | O=C(C1CC1)N1CCN(Cc2nc3ccccc3n2Cc2cccc(Cl)c2)CC1
49 | 1.9 | O=C(C1CC1)N1CCN(Cc2nc3ccccc3n2Cc2ccccc2Cl)CC1

Test system: not listed separately
Assay: Metabolic stability in human liver microsomes assessed as intrinsic clearance at 2 ug/ml measured up to 45 mins by LC-MS/MS analysis
Type: ADME, Microsome
Details: dose 2 µg/ml, read-out: CLH

Row | microsomal CLint at 2 ug/ml [µL/min/mg] | SMILES
50 | 104 | O=C(C1CC1)N1CCN(Cc2nc3ccccc3n2Cc2cccc(C(F)(F)F)c2)CC1
51 | 88 | O=C(C1CC1)N1CCN(Cc2nc3ccccc3n2Cc2ccccc2Cl)CC1
52 | 80 | Cc1cccc(Cn2c(CN3CCN(C(=O)C4CC4)CC3)nc3ccccc32)c1
